Where “and” joins values, the source holds several entries; their conditions need not be identical. Equal values may be shown once. Calls of active or inactive are those of the source.
Experiments:
[1] = Trypanosoma cruzi growth suppression in host cells – NIH3T3 host cells, beta-gal luminescence, confirmation (AID 2044); type: functional, cell-based;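 further: intracellular parasites grown in NIH/3T3 mouse fibroblasts as host cells; luminescent beta-galactosidase reporter signal from transgenic T. cruzi replicating inside host cells; inhibitors lower the luminescence signal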
[2] = NIH3T3 cell viability loss – ATP luminescence, mouse fibroblasts, counter-screen, dose response (AID 2010); type: functional, cell-based;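 further: cells exposed to compound for about 90 hours before reading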
Cytochrome P450 2C19 = Cytochrome P450 2C19 (Homo sapiens, UniProt P33261); experiment: Cytochrome panel assay with activity outcomes. Panel member name: p450-cyp2c19 Compounds with AC50 equal or less than 10 uM are considered active; type: functional
Cytochrome P450 2C19, sequence (P33261 whole entry): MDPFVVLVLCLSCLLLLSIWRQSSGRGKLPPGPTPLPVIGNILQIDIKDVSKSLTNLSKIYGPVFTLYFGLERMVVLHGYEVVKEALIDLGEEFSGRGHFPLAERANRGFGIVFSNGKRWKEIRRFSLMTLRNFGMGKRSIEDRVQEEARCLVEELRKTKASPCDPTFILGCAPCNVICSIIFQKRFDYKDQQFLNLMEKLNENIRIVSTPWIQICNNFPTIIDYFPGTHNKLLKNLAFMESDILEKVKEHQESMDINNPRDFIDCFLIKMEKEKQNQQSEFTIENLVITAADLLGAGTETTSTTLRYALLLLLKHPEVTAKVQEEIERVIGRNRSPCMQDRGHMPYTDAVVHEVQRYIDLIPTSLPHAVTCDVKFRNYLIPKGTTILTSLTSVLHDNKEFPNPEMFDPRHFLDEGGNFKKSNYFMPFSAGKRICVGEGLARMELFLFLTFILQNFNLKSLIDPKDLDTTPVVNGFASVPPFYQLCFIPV

Cytochrome P450 2C9 = Cytochrome P450 2C9 (Homo sapiens, UniProt P11712)
Cytochrome P450 2C9, sequence (P11712 whole entry): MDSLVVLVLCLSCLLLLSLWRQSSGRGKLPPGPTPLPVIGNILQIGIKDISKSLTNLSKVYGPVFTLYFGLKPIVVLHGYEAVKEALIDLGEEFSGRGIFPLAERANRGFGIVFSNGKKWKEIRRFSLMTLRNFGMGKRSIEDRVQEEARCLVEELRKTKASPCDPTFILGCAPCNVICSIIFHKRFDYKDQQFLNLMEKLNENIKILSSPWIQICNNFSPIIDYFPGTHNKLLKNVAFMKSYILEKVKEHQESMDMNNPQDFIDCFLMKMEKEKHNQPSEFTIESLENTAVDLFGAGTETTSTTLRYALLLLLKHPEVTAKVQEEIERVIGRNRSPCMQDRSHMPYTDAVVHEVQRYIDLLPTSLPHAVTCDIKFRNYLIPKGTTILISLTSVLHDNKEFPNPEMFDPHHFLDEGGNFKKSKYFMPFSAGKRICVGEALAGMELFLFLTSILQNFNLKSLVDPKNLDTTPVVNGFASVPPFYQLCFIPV

Cytochrome P450 1A2 = target: T1, Cytochrome P450 1A2 (Homo sapiens, UniProt P05177);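 further: PubChem cytochrome P450 panel assay, CYP1A2 panel member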
T1 sequence (P05177 whole entry): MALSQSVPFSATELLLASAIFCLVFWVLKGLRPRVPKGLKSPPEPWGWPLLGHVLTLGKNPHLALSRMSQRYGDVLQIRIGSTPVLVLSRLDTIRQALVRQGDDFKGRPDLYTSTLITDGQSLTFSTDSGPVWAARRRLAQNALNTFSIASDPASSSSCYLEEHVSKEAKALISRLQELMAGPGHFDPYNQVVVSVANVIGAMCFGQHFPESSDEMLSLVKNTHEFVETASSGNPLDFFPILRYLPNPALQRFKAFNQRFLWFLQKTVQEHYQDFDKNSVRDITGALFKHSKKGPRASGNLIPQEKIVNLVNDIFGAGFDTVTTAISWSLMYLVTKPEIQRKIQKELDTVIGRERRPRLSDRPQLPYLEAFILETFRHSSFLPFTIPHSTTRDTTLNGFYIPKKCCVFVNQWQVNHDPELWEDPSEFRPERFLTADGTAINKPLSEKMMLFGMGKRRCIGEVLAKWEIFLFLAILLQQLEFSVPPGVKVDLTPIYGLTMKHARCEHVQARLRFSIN

Cytochrome P450 2D6 = Cytochrome P450 2D6 (Homo sapiens, UniProt P10635);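 further: CYP2D6 member of a cytochrome P450 panel assay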
Cytochrome P450 2D6, sequence (P10635 whole entry): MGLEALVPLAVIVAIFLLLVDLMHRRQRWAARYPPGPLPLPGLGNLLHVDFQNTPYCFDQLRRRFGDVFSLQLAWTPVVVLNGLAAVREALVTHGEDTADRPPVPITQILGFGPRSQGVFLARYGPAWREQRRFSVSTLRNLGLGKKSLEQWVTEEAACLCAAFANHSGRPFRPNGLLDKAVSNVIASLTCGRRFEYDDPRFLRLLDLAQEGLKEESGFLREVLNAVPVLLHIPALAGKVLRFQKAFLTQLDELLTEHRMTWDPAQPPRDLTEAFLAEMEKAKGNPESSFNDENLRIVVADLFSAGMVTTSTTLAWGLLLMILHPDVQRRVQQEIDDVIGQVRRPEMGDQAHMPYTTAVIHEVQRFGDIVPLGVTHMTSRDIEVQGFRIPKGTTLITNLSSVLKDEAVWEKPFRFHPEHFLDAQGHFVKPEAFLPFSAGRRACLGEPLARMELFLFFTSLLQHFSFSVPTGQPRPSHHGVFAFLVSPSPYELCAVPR

[3] = test system: Streptococcus sp. 'group A'; experiment: Streptococcus pyogenes SK(-)GAS viability under kanamycin – luminescence, BacTiterGlo, confirmation, counter-screen for streptokinase expression inhibitor project, dose response (AID 1900); type: functional, organism-based
Streptococcus = experiment: GAS UMAA2166 growth inhibition – luminescence, BacTiterGlo, counter-screen for streptokinase expression inhibitor project, dose response (AID 1915); type: functional, organism-based;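 further: potency for reduction of bacterial viability or growth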

## O=C(CN1CCC(c2nc3ccccc3s2)CC1)NCc1ccccc1
[1]
  EC50: 0.237 µM (active)
[2]
  EC50: > 60 µM (not active)

## CCOc1cc(NC(=O)CC(C)C)c(OCC)cc1N=C(S)Nc1cccc(C)c1
Cytochrome P450 2C19; read-out: AC50
  AC50: 2.51 µM (inconclusive)

## Cc1ccc(C(=O)Nc2cccc(-c3cnc4ccccc4n3)c2)cc1
Cytochrome P450 2C19; read-out: AC50
  AC50: 1.58 µM (inconclusive)
Cytochrome P450 2C9
  AC50: 1 µM (inconclusive)

## CC(C)C(=O)NCCn1ccc2ccccc21
Cytochrome P450 1A2
  AC50: 20 µM (inconclusive)

## c1cncc(CNc2ncncc2-c2ccc3c(c2)OCO3)c1
Cytochrome P450 2C9
  AC50: 0.794 µM (inconclusive)

## Cc1cc(C)n(-c2nc(NC(C)C)nc(NC(C)C)n2)n1
Cytochrome P450 2C19; read-out: AC50
  AC50: 35.5 µM (inconclusive)

## CCCCNC(=O)C1CC(=O)N(CCC(C)C)C1 (configuration not stated)
Cytochrome P450 2C19; read-out: AC50
  AC50: 25.1 µM (inconclusive)

## Cc1cccc(-c2nsc(SCC(=O)Nc3nccs3)n2)c1
Cytochrome P450 2D6
  AC50: 8.91 µM (inconclusive)

## COc1ccc(OC)c2sc(N3CCN(C(=O)c4ccc([N+](=O)[O-])s4)CC3)nc12
[1]
  EC50: 1.8 µM (active)
[2]
  EC50: > 60 µM (not active)

## Cc1cccc(CNc2nc(-c3c(C)noc3C)nc3ccccc23)c1
Cytochrome P450 2C19; read-out: AC50
  AC50: 3.16 µM (inconclusive)
Cytochrome P450 2C9
  AC50: 0.631 µM (inconclusive)

## CC1(O)CC(=O)N(c2ccccc2)O1 (configuration not stated)
Cytochrome P450 2C19; read-out: AC50
  AC50: 17.8 µM (inconclusive)
Cytochrome P450 1A2
  AC50: 22.4 µM (inconclusive)
Cytochrome P450 2C9
  AC50: 10 µM (inconclusive)

## CN1CCN(c2ncc3ncc(=O)n(CCC#N)c3n2)CC1
Cytochrome P450 2C19
  AC50: inconclusive
Cytochrome P450 1A2
  AC50: 31.6 µM (inconclusive)

## Cc1nn(C(C)C(=O)NC2C(=O)N3C(C(=O)O)=C(CSc4nnnn4C)CSC23)cc1Cl (configuration not stated)
[3]
  EC50: 0.112 µM (active)
Streptococcus
  EC50: 0.337 µM (active)

## Cc1ccc(-c2nnc(-c3ccccc3S(=O)(=O)Cc3ccc(Cl)cc3)o2)cc1
Cytochrome P450 2C19; read-out: AC50
  AC50: 7.94 µM (inconclusive)
Cytochrome P450 2D6
  AC50: 0.0355 µM (inconclusive)
Cytochrome P450 2C9
  AC50: 1.78 µM (inconclusive)

## CC(C)c1cc(C(C)C)c(S(=O)(=O)N2c3ccccc3[C@@]3(Br)C[C@H]4C(=O)N[C@@H](Cc5ccccc5)C(=O)N4[C@@H]23)c(C(C)C)c1
[1]
  EC50: 2.08 µM (active)
[2]
  EC50: > 60 µM (not active)

## CCOC(=O)c1cc(C#N)c(N2CCN(C)CC2)nc1-c1ccccc1
[1]
  EC50: 1.3 µM (active)
[2]
  EC50: > 60 µM (not active)

## O=c1[nH]n(-c2cccc(Cl)c2)c2ncccc12
Cytochrome P450 2C19; read-out: AC50
  AC50: 39.8 µM (inconclusive)

## Cc1nc2cnc(N3CCN(C)CC3)nc2n(CCC#N)c1=O
Cytochrome P450 1A2
  AC50: 12.6 µM (inconclusive)

## CCn1ccc(C(=O)Oc2ccc(Cl)cc2)n1
Cytochrome P450 2C19; read-out: AC50
  AC50: 11.2 µM (inconclusive)
Cytochrome P450 2D6
  AC50: 22.4 µM (inconclusive)
Cytochrome P450 2C9
  AC50: 8.91 µM (inconclusive)

## COC(=O)CNC(=O)CN1C(=O)N(c2ccc(Cl)cc2)C(N(O)C(=O)Nc2ccc(Cl)cc2)C1(C)C (configuration not stated)
Cytochrome P450 2D6
  AC50: 15.8 µM (inconclusive)
Cytochrome P450 1A2
  AC50: 22.4 µM (inconclusive)

## O=C(Cn1cnc2c(oc3ccccc32)c1=O)NCc1ccco1
Cytochrome P450 2C19; read-out: AC50
  AC50: 20 µM (inconclusive)
Cytochrome P450 1A2
  AC50: 14.1 µM (inconclusive)
Cytochrome P450 2C9
  AC50: 8.91 µM (inconclusive)

## Cc1oc(-c2ccccc2Cl)nc1CN1CCCCC1c1cccnc1 (configuration not stated)
[1]
  EC50: 1.2 µM (active)
[2]
  EC50: > 60 µM (inconclusive)

## Cc1cnc(CNc2ncnc3ccc(-c4ccc(C(=O)N(C)C)cc4)cc23)cn1
Cytochrome P450 1A2
  AC50: 15.8 µM (inconclusive)

## NC(=O)[C@@H]1CCCN1Cc1ccc2c(c1)OCO2
Cytochrome P450 2C19; read-out: AC50
  AC50: 5.01 µM (inconclusive)
Cytochrome P450 2D6
  AC50: 3.98 µM (inconclusive)
Cytochrome P450 1A2
  AC50: 3.16 µM (inconclusive)

## O=C(c1cnccn1)N1CCC2(CCN(Cc3ccncc3)CC2)CC1
Cytochrome P450 1A2
  AC50: 25.1 µM (inconclusive)

## O=C(N1CCOCC1)N1CCN(c2ccccc2)CC1
Cytochrome P450 2C9
  AC50: 4.47 µM (inconclusive)

## COc1cc(C(=O)Nc2nc(-c3ccc(F)cc3)cs2)ccc1OCC(=O)N1CCOCC1
[1]
  EC50: 1.36 µM (active)
[2]
  EC50: > 60 µM (not active)

## CCOC(=O)c1cccc(N2C(N)=NC(N)=NC2(C)C)c1
[3]
  EC50: 0.127 µM (active)
Streptococcus
  EC50: 0.63 µM (active)

## CN(C)c1ccc(/C=C2/C(=O)N(c3ccc([N+](=O)[O-])cc3)N=C2N2CCOCC2)cc1
Cytochrome P450 2C19; read-out: AC50
  AC50: 0.0224 µM (inconclusive)

## Cc1nc(NC(=O)c2ccccc2)sc1-c1csc(Nc2ccc(Cl)cc2Cl)n1
Cytochrome P450 2D6
  AC50: 12.6 µM (inconclusive)

## CC(CC(=O)N1CCN(c2ccc(C(F)(F)F)cn2)CC1)n1ccnc1 (configuration not stated)
[1]
  EC50: 1.51 µM (active)
[2]
  EC50: > 60 µM (not active)

## CCNc1ncc2nc(-c3ccc(Cl)cc3)c(=O)n(C)c2n1
Cytochrome P450 2D6
  AC50: 25.1 µM (inconclusive)

## COc1cc(CCN2C(=O)c3cccc4cccc(c34)C2=O)c(S(=O)(=O)N2CCC(C)CC2)cc1OC
[1]
  EC50: 1.51 µM (active)
[2]
  EC50: > 60 µM (not active)

## CC(=O)NCCC(=O)Nc1nc(-c2ccc3ccccc3c2)cs1
[1]
  EC50: 2 µM (active)
[2]
  EC50: > 60 µM (not active)

## Fc1ccc2nc(Nc3nc4cc5c(cc4s3)OCO5)sc2c1
[3]
  EC50: 7.04 µM (active)
Streptococcus
  EC50: 3.02 µM (active)

## O=c1cnc2cnc(Nc3ccccc3)nc2n1Cc1cccs1
Cytochrome P450 2C9
  AC50: 3.16 µM (inconclusive)

## COC(=O)[C@@]1(Cc2ccc(F)cc2)[C@H]2c3cc(C(=O)N(C)C)n(CCO)c3C[C@H]2CN1C(=O)c1ccccc1
Cytochrome P450 2C19; read-out: AC50
  AC50: 25.1 µM (inconclusive)
Cytochrome P450 2D6
  AC50: 25.1 µM (inconclusive)

## CCC(C)(C(=O)NC1CCCC1)N(C(=O)c1ccccn1)c1ccccc1 (configuration not stated)
Cytochrome P450 2C19; read-out: AC50
  AC50: 8.91 µM (inconclusive)
Cytochrome P450 1A2
  AC50: 10 µM (inconclusive)

## CCOC(=O)N1CCN(S(=O)(=O)c2ccc3ncc(C(=O)O)c(O)c3c2)CC1
Cytochrome P450 2C9
  AC50: 15.8 µM (inconclusive)

## COc1ccc(OC)c(CNc2ccc3c(c2)CCC3)c1
[1]
  EC50: 2.08 µM (active)
[2]
  EC50: > 60 µM (not active)

## COC(=O)[C@@]1(Cc2ccc(F)cc2)[C@H]2c3cc(C(=O)N4CCCC4)n(CCN4CNCC4=O)c3C[C@H]2CN1C(=O)c1ccccc1
Cytochrome P450 2C19; read-out: AC50
  AC50: 39.8 µM (inconclusive)
Cytochrome P450 2D6
  AC50: 39.8 µM (inconclusive)
Cytochrome P450 1A2
  AC50: 15.8 µM (inconclusive)

## CCNc1ncc2nc(C)c(=O)n(C[C@H]3CCCO3)c2n1
Cytochrome P450 2D6
  AC50: 39.8 µM (inconclusive)

## Cc1cccc(NC(=O)CSc2nc3ccccc3c3nc(CCc4c(C)n[nH]c4C)nn23)c1
Cytochrome P450 2D6
  AC50: 8.91 µM (inconclusive)

## c1ccc2c(c1)ncn2-c1ccc(-c2ccnc(-c3ccncc3)n2)cc1
Cytochrome P450 2D6
  AC50: 1.12 µM (inconclusive)

## O=C(NCCOC12CC3CC(CC(C3)C1)C2)c1cccc(Br)c1
Cytochrome P450 1A2
  AC50: 17.8 µM (inconclusive)

## Cc1nnc(SCC(=O)Nc2nccs2)nc1O
Cytochrome P450 2C19; read-out: AC50
  AC50: 10 µM (inconclusive)
Cytochrome P450 1A2
  AC50: 31.6 µM (inconclusive)
Cytochrome P450 2C9
  AC50: 10 µM (inconclusive)

## Cc1ccc(C)c(C(=O)CN2C(=O)c3ccccc3S2(=O)=O)c1
Cytochrome P450 2D6
  AC50: 0.631 µM (inconclusive)

## Cc1ccc(Cl)cc1N=C(S)N(Cc1ccccc1)Cc1cccnc1
[1]
  EC50: 0.785 µM (active)
[2]
  EC50: > 60 µM (not active)

## CCOC(=O)CNc1nc(C(C)(C)C)nc2c1nnn2Cc1ccccc1Cl
[1]
  EC50: 3.11 µM (active)
[2]
  EC50: > 60 µM (not active)

## O=S(=O)(c1ccc(F)cc1)n1ccc(-c2cnc(-c3ccccc3)s2)n1
Cytochrome P450 2D6
  AC50: 17.8 µM (inconclusive)

## CN(C)CCCNc1c2c(nc3ccc(Cl)cc13)CCCC2
Cytochrome P450 1A2
  AC50: 3.16 µM (inconclusive)

## CCCCCCCNC(=O)c1cc(-c2ccncc2)nc2ccccc12
[1]
  EC50: 2.98 µM (active)
[2]
  EC50: > 60 µM (not active)

## CCn1c(=O)c2c(nc3n2CCS3)n(C)c1=O
Cytochrome P450 2C19; read-out: AC50
  AC50: 10 µM (inconclusive)
Cytochrome P450 2C9
  AC50: 0.00891 µM (inconclusive)

## Cc1cn2c(-c3ccncc3)nnc2s1
Cytochrome P450 1A2
  AC50: 10 µM (inconclusive)

## COc1cccc(NC(=O)CSc2nnc(CN3CCOCC3)n2C)c1
Cytochrome P450 2C19; read-out: AC50
  AC50: 28.2 µM (inconclusive)

## COc1ccc2c(c1)c(C(=O)N/N=C/c1cccc(Br)c1)c(C)n2C
[1]
  EC50: 0.324 µM (active)
[2]
  EC50: > 60 µM (not active)

## COc1ccc2c(c1)s/c(=N/C(=O)CS(=O)(=O)c1ccc(F)cc1)n2C
[1]
  EC50: 0.328 µM (active)
[2]
  EC50: > 30 µM (not active)

## C[N+](C)([O-])CCC=C1c2ccccc2CCc2ccccc21 [AMITRIPTYLINOXIDE]
Cytochrome P450 1A2
  AC50: 0.794 µM (inconclusive)

## O=C(O)c1ccccc1Nc1ccccc1 [FENAMIC ACID]
Cytochrome P450 1A2
  AC50: 15.8 µM (inconclusive)
Cytochrome P450 2C9
  AC50: 15.8 µM (inconclusive)

## COc1ccc(Cc2nccc3cc(OC)c(OC)cc23)cc1OC [PAPAVERINE]
Cytochrome P450 2C19; read-out: AC50
  AC50: 10 µM (inconclusive) and 3.98 µM (inconclusive)
Cytochrome P450 2D6
  AC50: 10 µM (inconclusive) and 25.1 µM (inconclusive)
Cytochrome P450 1A2
  AC50: 10 µM (inconclusive) and 25.1 µM (inconclusive)
